Laboratory results from patent US6455540B1, “Methods of use of quinolone compounds against anaerobic pathogenic bacteria” (priority 1999, dated 2002).
Converted amounts (≈) assume the structure as drawn.

Legend:
Test in all cases: Agar dilution MIC
Fusobacterium russii = type: cell-based; conditions: Fusobacterium russii
[1] = tested on: Anaerobiospirillum thomasii; type: cell-based; conditions: Anaerobiospirillum thomasii, 13 isolates
[2] = tested on: Peptostreptococcus micros; type: cell-based; conditions: 12 isolates
Porphyromonas spp. = type: cell-based, Porphyromonas cangingivalis, cansulci, circumdentaria, levii; conditions: Porphyromonas, 11 isolates
Clostridium dfficile = type: cell-based, Clostridium difficile; conditions: Clostridium, read-out: Minimal Inhibitory Concentration 90% (MIC90), 14 isolates
Veillonella spp. = type: cell-based; conditions: Veillonella, 24 isolates
Porphyromonas macaccae = type: cell-based; conditions: Porphyromonas, 13 isolates
[3] = tested on: Prevotella heparinolytica; type: cell-based; conditions: Prevotella heparinolytica, 16 isolates
[4] = tested on: Prevotella denticola/loeschii group; type: cell-based; conditions: Prevotella denticola, read-out: Minimal Inhibitory Concentration 50% (MIC50); 6 isolates
[5] = tested on: Actinomyces odontolyticus; type: cell-based; conditions: Schaalia odontolytica, 10 isolates
[6] = tested on: Fusobacterium spp group 1; type: cell-based; conditions: Fusobacterium, 19 isolates
Porphyromonas canoris = type: cell-based; conditions: Porphyromonas canoris, 10 isolates
[7] = tested on: Prevotella melaninogenica; type: cell-based; conditions: Prevotella melaninogenica, 12 isolates
[8] = tested on: Fusobacterium spp. group 2; type: cell-based, Fusobacterium mortiferum, necrogenes, ulcerans; conditions: 12 isolates
[9] = tested on: Peptostreptococcus magnus; type: cell-based; conditions: 13 isolates
[10] = tested on: Peptostreptococcus asaccharolyticus; type: cell-based; conditions: Peptoniphilus asaccharolyticus, 11 isolates
Prevotella intermedia = type: cell-based; conditions: Prevotella intermedia, 11 isolates
Clostridium ramosum = type: cell-based; conditions: 10 isolates
[11] = tested on: Clostridium clostridioforme; type: cell-based; conditions: Clostridium, 11 isolates
[12] = tested on: Peptostreptococcus prevotii; type: cell-based; conditions: 9 isolates
Bacteroides tectum = type: cell-based; conditions: Bacteroides pyogenes, 22 isolates
Prevotella bivia = type: cell-based; conditions: Prevotella bivia, 21 isolates
Fusobacterium varium = type: cell-based; conditions: 17 isolates
Bacteroides gracilis = type: cell-based, Bacteroides gracilis (Campylobacter gracilis); conditions: 11 isolates
Bilophila wadsworthia = type: cell-based; conditions: 16 isolates, agar supplemented with pyruvate
Actinomyces israelii = type: cell-based; conditions: 6 isolates
Porphyromonas gingivalis = type: cell-based; conditions: Porphyromonas gingivalis, 13 isolates
[13] = tested on: Prevotella buccae-oris group; type: cell-based; conditions: Prevotella, 22 isolates
[14] = tested on: Porphyromonas asaccharolyticus; type: cell-based, Porphyromonas asaccharolytica; conditions: Porphyromonas, 11 isolates
Clostridium inocuum = type: cell-based, Clostridium innocuum; conditions: Clostridium, 11 isolates
Bacteroides ureolyticus = type: cell-based; conditions: 17 isolates
[15] = tested on: Anaerobiospirillum succiniciproducens; type: cell-based; conditions: 3 isolates
[16] = read-out: Minimal Inhibitory Concentration 50% (MIC50)
[17] = read-out: Minimal Inhibitory Concentration 90% (MIC90)

With CCC[C@@H]1C[C@@H](C(=O)N[C@@H]([C@H]2O[C@H](SC)[C@H](O)[C@@H](O)[C@H]2O)[C@H](C)Cl)N(C)C1 [Clindamycin] the MIC50 (Fusobacterium russii; [16]) was 0.03 µg/mL (≈ 0.0706 µM), the MIC90 (Fusobacterium russii; [17]) was 0.06 µg/mL (≈ 0.141 µM) and the MIC50 [1, 16] was 32 µg/mL (≈ 75.3 µM). For the same compound, the MIC90 [1, 17] was over 32 µg/mL, the “Minimal Inhibitory Concentration Range” value [2] was 0.06 to 0.125 µg/mL and the MIC50 ([2]; Parvimonas micra, read-out: Minimal Inhibitory Concentration 50% (MIC50)) was 0.125 µg/mL (≈ 0.294 µM). For the same compound, the MIC90 ([2]; Parvimonas micra, read-out: Minimal Inhibitory Concentration 90% (MIC90)) was 0.125 µg/mL (≈ 0.294 µM), the MIC50 (Porphyromonas spp.; [16]) was at most 0.015 µg/mL and the MIC90 (Porphyromonas spp.; [17]) was at most 0.015 µg/mL. The MIC90 (Clostridium dfficile) was over 32 µg/mL, the MIC90 (Veillonella spp.; [17]) was 2 µg/mL (≈ 4.71 µM) and the MIC50 (Veillonella spp.; [16]) was 0.06 µg/mL (≈ 0.141 µM). The MIC50 (Porphyromonas macaccae; [16]) was at most 0.015 µg/mL, the MIC90 (Porphyromonas macaccae; [17]) was at most 0.015 µg/mL and the MIC90 [3, 17] was at most 0.015 µg/mL. It also gave an MIC50 [3, 16] of at most 0.015 µg/mL, an MIC50 [4] of at most 0.015 µg/mL and an MIC90 [5, 17] of 0.25 µg/mL (≈ 0.588 µM). It also gave an MIC50 [5, 16] of 0.125 µg/mL (≈ 0.294 µM), an MIC50 ([6]; GROUP1, read-out: Minimal Inhibitory Concentration 50% (MIC50)) of 0.06 µg/mL (≈ 0.141 µM) and an MIC90 ([6]; GROUP1, read-out: Minimal Inhibitory Concentration 90% (MIC90)) of 0.125 µg/mL (≈ 0.294 µM). It also gave an MIC50 (Porphyromonas canoris; [16]) of at most 0.015 µg/mL, an MIC90 (Porphyromonas canoris; [17]) of at most 0.015 µg/mL and an MIC90 [7, 17] of 0.5 µg/mL (≈ 1.18 µM). The MIC50 [7, 16] was at most 0.015 µg/mL, the “Minimal Inhibitory Concentration Range” value [8] was 0.06 to 8 µg/mL and the MIC50 ([8]; Fusobacterium, read-out: Minimal Inhibitory Concentration 50% (MIC50)) was 1 µg/mL (≈ 2.35 µM). For the same compound, the MIC90 ([8]; Fusobacterium, read-out: Minimal Inhibitory Concentration 90% (MIC90)) was 8 µg/mL (≈ 18.8 µM), the “Minimal Inhibitory Concentration Range” value [9] was 0.06 to 2 µg/mL and the MIC50 ([9]; Finegoldia magna, read-out: Minimal Inhibitory Concentration 50% (MIC50)) was 0.5 µg/mL (≈ 1.18 µM). It also gave an MIC90 ([9]; Finegoldia magna, read-out: Minimal Inhibitory Concentration 90% (MIC90)) of 2 µg/mL (≈ 4.71 µM), an MIC50 [10, 16] of 0.06 µg/mL (≈ 0.141 µM) and an MIC90 [10, 17] of over 32 µg/mL. The MIC90 (Prevotella intermedia; [17]) was at most 0.015 µg/mL, the MIC50 (Prevotella intermedia; [16]) was at most 0.015 µg/mL and the “Minimal Inhibitory Concentration Range” value (Clostridium ramosum) was 0.25 to 4 µg/mL. It also gave an MIC50 (Clostridium ramosum; Thomasclavelia ramosa, read-out: Minimal Inhibitory Concentration 50% (MIC50)) of 2 µg/mL (≈ 4.71 µM), an MIC90 (Clostridium ramosum; Thomasclavelia ramosa, read-out: Minimal Inhibitory Concentration 90% (MIC90)) of 2 µg/mL (≈ 4.71 µM) and an MIC90 [11, 17] of 2 µg/mL (≈ 4.71 µM). The MIC50 [11, 16] was 0.06 µg/mL (≈ 0.141 µM), the “Minimal Inhibitory Concentration Range” value [12] was 0.030 to 32 µg/mL and the MIC50 ([12]; Anaerococcus prevotii, read-out: Minimal Inhibitory Concentration 50% (MIC50)) was 1 µg/mL (≈ 2.35 µM). It also gave an MIC90 (Bacteroides tectum; [17]) of at most 0.015 µg/mL, an MIC50 (Bacteroides tectum; [16]) of at most 0.015 µg/mL and an MIC90 (Prevotella bivia; [17]) of 0.03 µg/mL (≈ 0.0706 µM). For the same compound, the MIC50 (Prevotella bivia; [16]) was at most 0.015 µg/mL, the “Minimal Inhibitory Concentration Range” value (Fusobacterium varium) was 0.06 to 16 µg/mL and the MIC50 (Fusobacterium varium; Fusobacterium varium, read-out: Minimal Inhibitory Concentration 50% (MIC50)) was 4 µg/mL (≈ 9.41 µM). For the same compound, the MIC90 (Fusobacterium varium; Fusobacterium varium, read-out: Minimal Inhibitory Concentration 90% (MIC90)) was 16 µg/mL (≈ 37.6 µM), the “Minimal Inhibitory Concentration Range” value (Bacteroides gracilis) was 0.03 to 8 µg/mL and the MIC90 (Bacteroides gracilis; Campylobacter gracilis, read-out: Minimal Inhibitory Concentration 90% (MIC90)) was 2 µg/mL (≈ 4.71 µM). The MIC50 (Bacteroides gracilis; Campylobacter gracilis, read-out: Minimal Inhibitory Concentration 50% (MIC50)) was 0.25 µg/mL (≈ 0.588 µM), the “Minimal Inhibitory Concentration Range” value (Bilophila wadsworthia) was 0.25 to 2 µg/mL and the MIC90 (Bilophila wadsworthia; Bilophila wadsworthia, read-out: Minimal Inhibitory Concentration 90% (MIC90)) was 2 µg/mL (≈ 4.71 µM). The MIC50 (Bilophila wadsworthia; Bilophila wadsworthia, read-out: Minimal Inhibitory Concentration 50% (MIC50)) was 0.5 µg/mL (≈ 1.18 µM), the “Minimal Inhibitory Concentration Range” value (Actinomyces israelii) was 0.06 to 0.25 µg/mL and the MIC50 (Actinomyces israelii; Actinomyces israelii, read-out: Minimal Inhibitory Concentration 50% (MIC50)) was 0.06 µg/mL (≈ 0.141 µM). It also gave an MIC50 (Porphyromonas gingivalis; [16]) of at most 0.015 µg/mL, an MIC90 (Porphyromonas gingivalis; [17]) of at most 0.015 µg/mL and an MIC90 [13, 17] of 0.03 µg/mL (≈ 0.0706 µM). For the same compound, the MIC50 [13, 16] was at most 0.015 µg/mL, the MIC50 [14, 16] was at most 0.015 µg/mL and the MIC90 [14, 17] was over 32 µg/mL. For the same compound, the MIC90 (Clostridium inocuum; [17]) was over 32 µg/mL, the MIC50 (Clostridium inocuum; [16]) was 0.5 µg/mL (≈ 1.18 µM) and the “Minimal Inhibitory Concentration Range” value (Bacteroides ureolyticus) was 0.03 to 0.5 µg/mL. The MIC90 (Bacteroides ureolyticus; Campylobacter ureolyticus, read-out: Minimal Inhibitory Concentration 90% (MIC90)) was 0.25 µg/mL (≈ 0.588 µM), the MIC50 (Bacteroides ureolyticus; Campylobacter ureolyticus, read-out: Minimal Inhibitory Concentration 50% (MIC50)) was 0.06 µg/mL (≈ 0.141 µM) and the “Minimal Inhibitory Concentration Range” value [15] was 32 µg/mL. For the same compound, the MIC50 ([15]; Anaerobiospirillum succiniciproducens, read-out: Minimal Inhibitory Concentration 50% (MIC50)) was 32 µg/mL (≈ 75.3 µM).
